The values that follow come from patent US20030108612A1, “Metallic nanoparticles for inhibition of bacterium growth” (priority 2001, published 2003).

The test system of assay [1] is WT P. aeruginosa. As to conditions: published literature; cited from earlier work.
Assay [2] concerns P. aeruginosa, WT, na1B and ΔABM. Kind of assay: Overnight culture, absorbance at 600 nm by UV-vis spectroscopy (MIC). The assay is classed as cell-based, Pseudomonas aeruginosa. Conditions: antibiotic concentration 3.13, 15.65 or 31.3 μg/mL, three strains. As for the experimental part:
After the overnight incubation, the absorbance of the […] an UV-vis spectrometer to determine the concentrations of bacterial cells based upon the light scattering of bacterial cells for the three strains of P. aeruginosa, WT, na1B and ΔABM. For each strain of P. aeruginosa cells and each concentration of the silver coated gold particles, the absorbances of 5 samples of the culture medium were measured with the absorbance of each sample measured 3 times and the average absorbance was calculated. The absorbance of ultra-pure water containing the corresponding concentration of silver coated gold particles was subtracted from the average absorbance and the resulting absorbance was plotted in FIG. 1 versus the concentrations of the silver coated gold particles used in the incubation. […] Thus, the MICs of the silver coated gold particles were determined to be about 20 pM for these three strains of P. aeruginosa.
With a UV-vis spectrometer, the absorbance of each sample of the culture medium was measured at 600 nm after the overnight incubation to determine the P. aeruginosa cell concentration based upon light scattering of cells. For each strain of P. aeruginosa cells, the absorbances of 4 samples of the P. aeruginosa culture medium containing azthreonam or gentamicin at a concentration of 0.313, 3.13, 15.65 or 31.3 μg/mL were measured. […]

Assay [3] concerns Pseudomonas aeruginosa cells (WT, na1B, ΔABM). Kind of assay: Overnight culture, visual inspection of turbidity (MIC). The assay is classed as cell-based. Conditions: visual inspection after overnight incubation. The text has this: Three strains of Pseudomonas aeruginosa cells (WT, na1B, ΔABM) were used in this working example. “WT” stands for wild type P. aeruginosa, PA04290. The symbol “AABM” stands for a mutant of wild type P. aeruginosa, PA04290, lacking MexA, MaxB and OprM, wherein MexA, MexB and OprM are component genes of an efflux system in wild type P. aeruginosa. The symbol “na1B” stands for a mutant of wild type P. aeruginosa, PA04290, having over expression of the MexA, MexB and OprM genes. These three strains were precultured in autoclaved test tubes overnight. Each test tube contained 3 mL of L-broth medium (1% tryptone, 0.5% yeast extract and 0.5% NaCl, pH 7.2) and was placed inside a shaker at 37° C. and 230 rpm. Then, 20 μL of this pre-cultured cell medium was transferred to each new test tube containing 2 mL of L-broth medium and 0, 2, 20, 40, 80, 100, 200 and 400 μL of a sterile liquid containing 300 pM silver enhanced gold particles (as the metallic nanoparticles used in this example) prepared as described in Example 1. […] Based on visual inspection of test tubes (the presence or absence of turbidity in the medium in each of the test tube) after the overnight incubation, it was determined that the bacterial cells grew at a concentration of the silver coated gold particles of less than 20 pM, but not at a concentration of 20 pM or more. […]

For assay [4], the system named is P. aeruginosa, WT, na1B and ΔABM. Kind of assay: Overnight culture, cell count by single-cell dark-field microscopy (MIC). Type of assay: cell-based, Pseudomonas aeruginosa. As to conditions: antibiotic concentration 3.13, 15.65 or 31.3 μg/mL. The text has this: Images were taken of the 5 samples using a dark-field microscope equipped with a Micromax CCD camera. For each of the three strains of P. aeruginosa, 5 samples of the […], 0.2, 2, 20 or 90 pM were examined using dark-field microscopy to count the number of P. aeruginosa cells present. For each sample, 5 pictures were taken at different locations to obtain representative numbers of P. aeruginosa cells present in each sample and the numbers of P. aeruginosa cells counted in the 5 pictures were summed to obtain the total number of P. aeruginosa cells in the 5 pictures. FIG. […] However, at a metallic nanoparticle concentration of 0, 0.2 or 2 pM, there were 200 or more P. aeruginosa cells in the 5 pictures of the culture medium. […] There were green, blue and red metallic nanoparticles, but the most abundant were green. The red nanoparticles appeared to be the brightest under the dark-field microscope because of the larger size.
After the overnight incubation described above, images were taken using a dark-field microscope equipped with a Micromax CCD camera. For each of the three strains of P. aeruginosa in the presence of azthreonam or gentamicin at a concentration of 0.313, 3.13, 15.65 or 31.3 μg/mL, 4 samples of the culture medium were subjected to single-cell dark-field microscopy. […]

For the compound `C[C@H]1[C@H](NC(=O)/C(=N\OC(C)(C)C(=O)O)c2csc(N)n2)C(=O)N1S(=O)(=O)O` [azthreonam], the MIC entry in assay [1] was “about 3.13 μg/mL”. Further, the “absorbance at 600 nm” value in assay [2] is “almost zero”. Also, in assay [3], the “minimum inhibitory concentrations (MICs)” value is reported as “about 3.13 μg/mL”. In assay [4], the “total number of P. aeruginosa cells present in the 5 pictures” value is “almost zero”.
As for gentamicin, in assay [1], the MIC result is reported as “about 3.13 μg/mL”. The “absorbance at 600 nm” value in assay [2] was “almost zero”. The “minimum inhibitory concentrations (MICs)” value in assay [3] is “about 3.13 μg/mL”. The “total number of P. aeruginosa cells present in the 5 pictures” value in assay [4] is reported as “almost zero”.
